Tests used:
Format in all cases: in vivo
[1] = system: tall morningglory (Ipomoea purpurea (L.) Roth) (TM); assay: Postemergence herbicide test, foliar spray, tall morningglory; conditions: 3000 ppm foliar spray to drip point, treated six days after emergence, two weeks after treatment
Procedure: (§1) To illustrate the effectiveness of the previously described substituted oxadiazines of this invention as preemergence herbicides, 300 mg of the chemical was dissolved in a composition comprising 10 mL acetone to which 30 mg of tile emulsifying agent, ethoxylated sorbitan monolaurate, was added. The solution was diluted to 100 mL with distilled water. Ten milliliters of this 3000 ppm solution was diluted to 250 ppm with distilled water. The chemical was applied at the rate of 10 pounds/acre (11.2 kg/ha) by drenchings 46 mL of the 250 ppm solution on the surface of soil in 4½ inch (11.25 cm) plastic pots wherein seeds of the following weeds had been planted: tall morningglory (Ipomoea purpurea (L.) Roth) (TM), To illustrate the effectiveness of the described substituted oxadiazines as postemergence herbicides, the 3000 ppm solution described under Example 5 was atomized with a conventional DeVilbiss™ sprayer, wetting the foliage to the drip point. The weeds, which were the same species as described in Example 5, were treated six days after emergence. The percent weed control was evaluated two weeks after treatment.

[2] = system: switchgrass (Panicum virgahim L.) (SG); assay: Postemergence herbicide test, foliar spray, switchgrass; conditions: 3000 ppm foliar spray to drip point, treated six days after emergence, two weeks after treatment
Procedure: as §1, with “41⁄2” for “4½”, “switchgrass (Panicum […].) (SG),” for “tall morningglory (Ipomoea purpurea (L.) Roth) (TM),”, “DeVilbissTM” for “DeVilbiss™”

[3] = system: tall morningglory (Ipomoea purpurea (L.) Roth) (TM); assay: Preemergence herbicide test, soil drench, tall morningglory; conditions: Ipomoea, 336 h, 10 lbs/A (11.2 kg/ha) soil drench, two weeks after treatment, vs untreated checks, read-out: Percent Weed Control TM
In short: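 Acetone/emulsifier formulation diluted to 250 ppm and drenched onto soil surface of seeded pots at 10 lb/acre (11.2 kg/ha), preemergence. Percent weed control versus untreated checks scored two weeks after treatment.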

[4] = system: prickly sida (Sida spinosa L.) (PS); assay: Postemergence herbicide test, foliar spray, prickly sida; conditions: 3000 ppm foliar spray to drip point, treated six days after emergence, two weeks after treatment
Procedure: as §1, with “41⁄2” for “4½”, “prickly […] spinosa L.) (PS),” for “tall morningglory (Ipomoea purpurea (L.) Roth) (TM),”, “DeVilbissTM” for “DeVilbiss™”

[5] = system: velvetleaf (Abutilon theophrasti Medik.) (VL); assay: Preemergence herbicide test, soil drench, velvetleaf; conditions: Abutilon theophrasti, 336 h, 10 lbs/A (11.2 kg/ha) soil drench, two weeks after treatment, vs untreated checks, read-out: Percent Weed Control VL
In short: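 Compound in acetone/ethoxylated sorbitan monolaurate, diluted to 250 ppm in water, was drenched onto the soil surface of pots sown with velvetleaf at 10 lb/acre (11.2 kg/ha). Percent control versus untreated checks was rated two weeks after treatment.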

[6] = system: switchgrass (Panicum virgahim L.) (SG); assay: Preemergence herbicide test, soil drench, switchgrass; conditions: Panicum, 336 h, 10 lbs/A (11.2 kg/ha) soil drench, two weeks after treatment, vs untreated checks, read-out: Percent Weed Control SG
In short: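 Preemergence soil drench at 10 pounds/acre (11.2 kg/ha), 46 mL of 250 ppm aqueous solution (acetone, ethoxylated sorbitan monolaurate) applied to pots sown with switchgrass seed. Percent weed control versus untreated checks scored two weeks after treatment.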

Structure (SMILES) | Percent Weed Control TM [1] | Percent Weed Control SG [2] | pest or weed control at 11208.5 g/ha [3] | Percent Weed Control PS [4] | pest or weed control at 11208.5 g/ha [5] | pest or weed control at 11208.5 g/ha [6]
Fc1ccc(C2=NC(C(F)(F)F)(C(F)(F)F)N=C(C(F)(F)C(F)(F)F)O2)cc1Cl [Compound 20, 2-(3-chloro-4-fluorophenyl)-6-(pentafluoroethyl)-4,4-bis(trifluoromethyl)-4H-1,3,5-oxadiazine] | 0% | 30% | 100% | 70% | 100% | 100%
FC(F)(F)C(F)(F)C1=NC(C(F)(F)F)(C(F)(F)F)N=C(c2cccc(Cl)c2)O1 [Compound 13, 2-(3-chlorophenyl)-6-(pentafluoroethyl)-4,4-bis(trifluoromethyl)-4H-1,3,5-oxadiazine] | 100% | 90% | 100% | 100% | 100% | 100%
FC(F)(F)C1=NC(C(F)(F)F)(C(F)(F)F)N=C(c2cccc(Cl)c2)O1 [Compound 4, 2-(3-chlorophenyl)-4,4,6-tris(trifluoromethyl)-4H-1,3,5-oxadiazine] | 100% | 80% | 100% | 90% | 100% | 100%
FC(F)(F)C(F)(F)C1=NC(C(F)(F)F)(C(F)(F)F)N=C(c2ccc(Br)cc2)O1 [Compound 25, 2-(4-bromophenyl)-6-(pentafluoroethyl)-4,4-bis(trifluoromethyl)-4H-1,3,5-oxadiazine] | 20% | 0% | 100% | 100% | 100% | 100%
FC(F)(F)C(F)(F)C1=NC(C(F)(F)F)(C(F)(F)F)N=C(c2ccc(Cl)cc2)O1 [Compound 24, 2-(4-chlorophenyl)-6-(pentafluoroethyl)-4,4-bis(trifluoromethyl)-4H-1,3,5-oxadiazine] | 0% | 20% | 100% | 100% | 100% | 100%

Reference: patent publication US6514911B1, “Substituted oxadiazines useful as pesticides” (Uniroyal Chemical Company, Inc., priority 2002, dated 2003)
